According to the NIST ThermoML archive (doi:10.1021/je500053c):

What was measured:
[1] = xn = mol fraction of the nth substance listed; conditions: 101 kPa, Liquid, Vibrating tube method
[2] = 101.33 kPa, Liquid, Vibrating tube method

CCCCn1cc[n+](C)c1.CS(=O)(=O)[O-] [1-butyl-3-methylimidazolium methanesulfonate] + O
mass density [kg/m3], [1]
Conditions	x1 = 0.025	x1 = 0.05	x1 = 0.075	x1 = 0.1	x1 = 0.148	x1 = 0.199	x1 = 0.251	x1 = 0.298	x1 = 0.346	x1 = 0.441
298.15 K	1038.1	1068.4	1089.3	1104.5	1123.9	1137.1	1145.7	1151.3	1154.9	1160.6
313.15 K	1031.2	1059.7	1079.7	1093.5	1113.6	1126.8	1135.5	1141.2	1144.8	1150.6
323.15 K	1025.9	1053.6	1073.1	1087.6	1106.6	1119.9	1128.6	1134.4	1138.1	1144
333.15 K	1020.1	1047.1	1066.2	1080.5	1099.5	1112.9	1121.7	1127.6	1131.4	1137.3
343.15 K	1013.9	1040.3	1059.2	1073.3	1092.3	1105.7	1114.7	1120.7	1124.6	1130.7
358.15 K	1003.9	1029.7	1048.2	1062.3	1081.2	1094.9	1104.1	1110.3	1114.4	1120.7

O [water] + CCCCn1cc[n+](C)c1.CS(=O)(=O)[O-]
[1], x2 = 0
Conditions	mass density [kg/m3]
333.15 K	983.2
343.15 K	977.8
358.15 K	968.3

CCCCCC[n+]1ccn(C)c1.O=S(=O)([N-]S(=O)(=O)C(F)(F)F)C(F)(F)F
[2]
Conditions	mass density [kg/m3]
288.15 K	1381.4
298.15 K	1372
308.15 K	1362.7
318.15 K	1353.5
